The target of one assay is T1, hOGA (Homo sapiens, UniProt O60502).
T1 construct: made in house
T1 sequence (O60502 1-916): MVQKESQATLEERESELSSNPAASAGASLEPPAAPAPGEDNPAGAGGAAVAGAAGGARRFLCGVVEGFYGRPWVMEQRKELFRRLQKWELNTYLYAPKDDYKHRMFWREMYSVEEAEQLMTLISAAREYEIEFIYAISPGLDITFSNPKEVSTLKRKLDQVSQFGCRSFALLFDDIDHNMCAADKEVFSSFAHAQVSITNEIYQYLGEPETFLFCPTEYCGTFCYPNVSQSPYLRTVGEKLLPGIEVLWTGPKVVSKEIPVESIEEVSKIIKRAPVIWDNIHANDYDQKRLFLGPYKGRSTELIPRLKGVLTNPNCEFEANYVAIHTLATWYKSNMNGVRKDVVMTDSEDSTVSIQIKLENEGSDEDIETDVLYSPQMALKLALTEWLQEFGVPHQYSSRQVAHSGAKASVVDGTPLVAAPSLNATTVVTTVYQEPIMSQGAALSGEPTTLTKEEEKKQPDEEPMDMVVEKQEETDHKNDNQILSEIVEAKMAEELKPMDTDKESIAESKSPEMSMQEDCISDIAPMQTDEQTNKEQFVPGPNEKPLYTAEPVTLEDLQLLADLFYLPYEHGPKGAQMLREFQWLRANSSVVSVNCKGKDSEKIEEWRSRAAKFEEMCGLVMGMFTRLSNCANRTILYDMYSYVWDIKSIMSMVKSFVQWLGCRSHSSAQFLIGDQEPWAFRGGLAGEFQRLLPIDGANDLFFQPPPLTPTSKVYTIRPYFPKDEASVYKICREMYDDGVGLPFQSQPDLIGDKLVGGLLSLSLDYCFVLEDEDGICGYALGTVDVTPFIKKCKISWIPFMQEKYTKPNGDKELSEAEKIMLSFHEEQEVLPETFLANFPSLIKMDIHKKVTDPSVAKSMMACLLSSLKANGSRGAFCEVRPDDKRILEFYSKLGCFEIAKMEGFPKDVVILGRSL
The experiment in a line: hOGA steady-state kinetics, fluorogenic assay, competitive inhibition fit. It is filed as biochemical.

The target of assay [1] is T2, endogenous hOGA (Homo sapiens, UniProt O60502).
T2 construct: activity on endogenous hOGA in a cell-based assay with HEK293 cells; endogenous in cells; host or cells: HEK293
T2 sequence (O60502 1-916): T1 sequence (O60502 1-916)
Nature of the assay: O-GlcNAc microscopy assay (RL2 immunostaining, IN Cell Analyzer). The following applies: HEK293 cells, 6 hr, normalized over DAPI; read-out: EC50 total O-GlcNAc levels (microscopy assay). It is filed as cell-based. Here is the method: (§1) The novel GlcNAcstatin derivatives were investigated for their activity on endogenous hOGA in a cell-based assay with HEK293 cells. […] Furthermore, we determined the EC50 of GlcNAcstatins G and H by O-GlcNAc microscopy assay (Figure 3B; see Figure S1 available online). Elevated total O-GlcNAc levels in HEK293 cells were quantified and normalized over a reference DAPI signal.
For the microscopy studies, HEK293 cells were seeded in clear flat-bottom 96 well assay plates (Corning 3340) and grown for 12 hr at 37°C under 5% CO2. Cells were treated with concentrations of GlcNAcstatins G and H (1% final DMSO concentration) for 6 hr. Cells were washed twice with 50 μl PBS and fixed in 3.7% formaldehyde for 10 min at 37°C. After washing with TBST (0.1% Triton X-100) and permeabilized for further 10 min, the cells were blocked with 2% BSA and 0.1% normal donkey serum in TBST for 1 hr at RT, followed by washing twice with TBST. Cells were immunostained with the RL2 O-GlcNAc antibody (1/500) for 12 hr at 4°C and fluorescent secondary (1/500) for 1 hr at RT. Cells were further washed twice with TBS before incubation with DAPI (5 μg/ml) and CellMask (1/25000). Cells were washed twice with TBS and stored in 50 μl PBS. Images were taken and analyzed with the IN Cell Analyzer 1000 system (GE Healthcare).

The target in assay [2] is T2, endogenous hOGA. The experiment in a line: Cellular O-GlcNAcylation western blot (CTD110.6 antibody), densitometry. It is filed as cell-based. Conditions: HEK293 cells, 6 hr; for EC50: densitometry, read-out: EC50 increase of cellular O-GlcNAcylation (western blot). Here is the method: as §1
For the O-GlcNAc western blots, HEK293 cells were cultured and treated with GlcNAcstatin derivatives as described previously ([Dorfmueller et al., 2009]). Cell lysates were separated by SDS PAGE, and O-GlcNAcylation was detected by western blotting with the anti-O-GlcNAc CTD110.6 antibody and quantified ([Dorfmueller et al., 2009]). To calculate the EC50 values of GlcNAcstatins C, F, and G, the data, background corrected with the untreated cells, were plotted against the inhibitor concentrations using the program GraphPad Prism (http://www.graphpad.com).
For orientation: A western blot detects proteins with antibodies after separation by electrophoresis.

For assay [3], the system named is hHexA/B. Nature of the assay: hHexA/B inhibition, fluorogenic 4MU-NAG substrate. It is filed as biochemical, human. The following applies: for Ki: read-out: Ki hHex A/B.
The target of assay [4] is T3, CpOGA-wild-type (Clostridium perfringens, UniProt Q0TR53). Nature of the assay: biochemical. Further details: species or system C. perfringens.
Assay [5] addresses hHexA/B. Conditions: read-out: Ki hHex A/B; cited from earlier work.
The target in assay [6] is T3, CpOGA-wild-type. Conditions: cited from earlier work.

Where two headings read alike, the source gives them in different places.

T3 sequence (Q0TR53 31-624 limits assumed): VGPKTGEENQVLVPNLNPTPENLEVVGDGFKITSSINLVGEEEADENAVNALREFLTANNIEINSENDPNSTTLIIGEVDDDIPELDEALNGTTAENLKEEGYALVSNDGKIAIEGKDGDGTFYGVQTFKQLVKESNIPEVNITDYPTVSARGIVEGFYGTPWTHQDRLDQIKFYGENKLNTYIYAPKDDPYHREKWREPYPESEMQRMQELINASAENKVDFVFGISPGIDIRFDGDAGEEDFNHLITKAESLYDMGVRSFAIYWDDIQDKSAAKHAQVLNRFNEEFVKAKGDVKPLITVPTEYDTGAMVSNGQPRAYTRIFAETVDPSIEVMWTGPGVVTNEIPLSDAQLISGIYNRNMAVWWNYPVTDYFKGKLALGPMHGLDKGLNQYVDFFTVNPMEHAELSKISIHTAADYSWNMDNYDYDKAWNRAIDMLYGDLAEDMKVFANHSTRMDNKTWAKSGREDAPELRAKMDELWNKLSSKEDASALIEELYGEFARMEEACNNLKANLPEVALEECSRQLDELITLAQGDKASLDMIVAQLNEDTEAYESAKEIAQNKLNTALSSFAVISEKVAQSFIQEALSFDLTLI

In the case of `C=CC=CC(=O)NC1c2nc(CCc3ccccc3)cn2C(CO)C(O)C1O` (stereo not drawn) [GlcNAcstatin G], the Ki on hOGA (physiological pH 7.3) was 0.0041 ± 0.0007 µM; on hHexA/B [3], more than 3700 µM; at CpOGA-wild-type [4], 7.8 ± 0.7 pM. Besides, the EC50 at endogenous hOGA [1] stood at 0.003 µM; on endogenous hOGA [2], 0.02 µM. The “concentration in culture media inducing maximum levels of O-GlcNAcylation” value on endogenous hOGA [2] (western blot) worked out at 100 nM. In the assay with hHexA/B [3], this molecule displayed an IC50 of approximately 7000 µM.
`O=C(CCS)N[C@H]1c2nc(CCc3ccccc3)cn2[C@H](CO)[C@@H](O)[C@@H]1O` [GlcNAcstatin F]: the figures for the Ki at hOGA (physiological pH 7.3), at hHexA/B [3] and on CpOGA-wild-type [4] were 0.0112 ± 0.0014 µM, 11 ± 0.6 µM and 3.2 ± 0.2 pM, respectively. For the same molecule, the EC50 on endogenous hOGA [2] was 0.29 µM.
As for `CCCCC(=O)N[C@H]1c2nc(CCc3ccccc3)cn2[C@H](CO)[C@@H](O)[C@@H]1O` [GlcNAcstatin H], the Ki turned out to be 0.0026 ± 0.0003 µM at hOGA (physiological pH 7.3) and 100 ± 30 µM at hHexA/B [3] (Cheng-Prusoff, approximate values obtained after including an artificial 100% inhibition point (footnote d)). Also, at hOGA (ratio of Ki hHexA/B to Ki hOGA), the “Selectivity (hHexA/B/hOGA)” value was 35,000. In addition, on endogenous hOGA [1], the EC50 worked out at 0.042 µM.
For the molecule Thiamet-G, the Ki on hHexA/B [5] was 750 µM.
On to `CC(=O)N[C@H]1/C(=N/OC(=O)Nc2ccccc2)O[C@H](CO)[C@@H](O)[C@@H]1O` [PUGNAc, reference compound], for which the results for the Ki on hHexA/B [5] and on CpOGA-wild-type [4] were 0.036 µM and 5400 ± 400 pM, respectively.
`CC(C)C(=O)N[C@H]1c2nc(CCc3ccccc3)cn2[C@H](CO)[C@@H](O)[C@@H]1O` [GlcNAcstatin C]: on hOGA (McIlvaine buffer, pH range 4.9–8.1, 1/Ki versus pH), the “pH optimum of hOGA inhibition” value is 6.6. The Ki on hOGA (pH 6.6 (maximum potency)) is 0.0029 µM; at hOGA (physiological pH 7.3), 0.0032 ± 0.0009 µM; at CpOGA-wild-type [6], 4.6 ± 0.2 pM; on hHexA/B [3], 0.6 ± 0.1 µM. In addition, the EC50 at endogenous hOGA [2] worked out at 0.02 µM.

By EC50 is commonly meant the concentration that produces a half-maximal response. One may read the IC50 as the concentration needed to halve the response being measured.

Source of the values: article PMC3032886, “Cell-Penetrant, Nanomolar O-GlcNAcase Inhibitors Selective against Lysosomal Hexosaminidases” (Chemistry & Biology, 2010).
